Experimental findings from patent US10544103B2, “5-HT2 antagonists” (ANAMAR AB, priority 2015, dated 2020) are described below.

Assay [1] addresses T1, 5-HT2B receptor (Homo sapiens, UniProt P41595).
T1 construct: host or cells: CHO-K1
In words: 5-HT2B receptor agonism, IP-1 accumulation in CHO-K1 cells without prior 5-HT stimulation. Format: cell-based. Conditions: % of IP-1 accumulation induced by 5-HT (1 uM). The method, then:
(§1) 5-HT2B receptor antagonism (performed at Eurofins Panlabs Taiwan, Ltd.) was determined in CHO-K1 cells expressing human receptor protein as inhibition of 5-HT (5 nM) stimulated IP-1 accumulation measured by HTRF quantitation. SB 206553 was used as a standard reference compound. The antagonistic response is expressed as % inhibition of the 5-HT induced effect.
5-HT2B receptor agonism (performed at Eurofins Panlabs Taiwan, Ltd.) was determined in the same model as described above in Ex. 117. without prior stimulation with 5-HT. The agonistic response is expressed as % of the IP-1 accumulation induced by 5-HT (1 uM) stimulation.

In assay [2] the target is T1, 5-HT2B receptor. In words: 5-HT2B receptor antagonism, inhibition of 5-HT stimulated IP-1 accumulation (HTRF) in CHO-K1 cells. Format: cell-based. As to conditions: % inhibition of 5-HT (5 nM) induced effect. On the procedure: as §1
For assay [3], the target named is T1, 5-HT2B receptor. The experiment in a line: 5-HT2B receptor binding, 3H-LSD ligand displacement assay. Conditions: for inhibition at 0.001 µM: 0.001 uM compound; for inhibition at 0.01 µM: 0.01 uM compound; for inhibition at 0.1 µM: 0.1 uM compound. The method, then:
5-HT2B receptor binding (performed at Eurofins Panlabs Taiwan, Ltd.) to human receptor protein expressed in CHO-K1 cells was determined in a ligand displacement assay using ^3H-lysergic acid diethylamide (LSD) as radioligand and ketanserine as a standard reference compound. Data is presented as % displacement of radioligand at indicated compound concentrations, see Table 1 and Table 2.

T1 sequence (P41595 whole entry): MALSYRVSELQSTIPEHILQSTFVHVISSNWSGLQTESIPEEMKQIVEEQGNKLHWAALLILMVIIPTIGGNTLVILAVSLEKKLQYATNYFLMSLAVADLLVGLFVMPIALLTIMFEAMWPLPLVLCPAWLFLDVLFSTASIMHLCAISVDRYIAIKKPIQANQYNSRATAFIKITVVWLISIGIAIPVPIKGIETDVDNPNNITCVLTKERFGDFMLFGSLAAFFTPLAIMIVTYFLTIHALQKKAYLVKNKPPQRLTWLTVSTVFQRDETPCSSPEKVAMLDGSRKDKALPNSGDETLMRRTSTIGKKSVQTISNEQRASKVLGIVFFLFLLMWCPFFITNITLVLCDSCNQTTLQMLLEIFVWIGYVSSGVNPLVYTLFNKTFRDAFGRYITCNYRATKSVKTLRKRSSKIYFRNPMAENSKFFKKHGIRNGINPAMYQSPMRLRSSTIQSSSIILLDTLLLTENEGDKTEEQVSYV

For `C[C@@H]1CN(C(=N)N)N=C1c1ccccc1O` (single isomer, unassigned) [Example 38], in assay [1], the activation at 0.0001 µM is -2%, the activation at 0.001 µM was -1%, the activation at 0.01 µM was -2% and the activation at 0.1 µM came to 0%. The activation at 1 µM in assay [1] was -2%. In assay [2], the inhibition at 0.0001 µM was found to be 23%, the inhibition at 0.001 µM worked out at 27%, the inhibition at 0.01 µM came to 75% and the inhibition at 0.1 µM was determined as 100%. Moreover, the inhibition at 1 µM in assay [2] worked out at 102%. In assay [3], the inhibition at 0.001 µM amounted to 19%, the inhibition at 0.01 µM is 76% and the inhibition at 0.1 µM came to 98%. Further, in assay [3] (1 uM compound), the inhibition at 1 µM is 102%. Further, the inhibition at 10 µM in assay [3] (10 uM compound) was determined as 104%.
Consider `C[C@@H]1CN(C(=N)N)N=C1c1cccc(Cl)c1O` (single isomer, unassigned) [Example 73, (R)*-3-(3-chloro-2-hydroxyphenyl)-4-methyl-4,5-dihydro-1H-pyrazole-1-carboximidamide], for which, in assay [1], the activation at 0.0001 µM was found to be 3%, the activation at 0.001 µM is 4%, the activation at 0.01 µM came out at 3% and the activation at 0.1 µM was found to be 3%. For the same compound, in assay [2], the inhibition at 0.0001 µM was determined as 29%, the inhibition at 0.001 µM is 87%, the inhibition at 0.01 µM was 97% and the inhibition at 0.1 µM was 97%. Besides, the inhibition at 1 µM in assay [2] is 98%. In assay [3], the inhibition at 0.001 µM is 49%, the inhibition at 0.01 µM was determined as 83% and the inhibition at 0.1 µM amounted to 99%.
Consider `COc1ccccc1C1=NN(C(=N)N)CC1` [Example 1, 3-(2-Methoxyphenyl)-4,5-dihydro-1H-pyrazole-1-carboximidamide], for which, in assay [1], the activation at 0.01 µM was -1%, the activation at 0.1 µM is -8% and the activation at 1 µM was -5%. Besides, the activation at 10 µM in assay [1] (10 uM) was -1%. Further, in assay [2], the inhibition at 0.01 µM turned out to be 2%, the inhibition at 0.1 µM turned out to be 0% and the inhibition at 1 µM worked out at 72%. Moreover, the inhibition at 10 µM in assay [2] (10 uM) worked out at 107%.
Turning to `CC1CN(C(=N)Nc2ccc(Cl)cc2)N=C1c1ccccc1O` (stereo not shown) [Example 103, N-(4-Chlorophenyl)-3-(2-hydroxyphenyl)-4-methyl-4,5-dihydro-1H-pyrazole-1-carboximidamide], in assay [3], the inhibition at 0.001 µM is 42%, the inhibition at 0.01 µM is 90% and the inhibition at 0.1 µM was 99%.
In the case of `COc1ccc(NC(=N)N2CC(C)C(c3ccccc3OCc3ccccc3)=N2)cc1` (stereo not shown) [Example 104, 3-(2-(Benzyloxy)phenyl)-N-(4-methoxyphenyl)-4-methyl-4,5-dihydro-1H-pyrazole-1-carboximidamide], in assay [3], the inhibition at 0.001 µM is -9%, the inhibition at 0.01 µM worked out at 33% and the inhibition at 0.1 µM amounted to 77%.
The corresponding values for `COc1ccc(NC(=N)N2CC(C)C(c3ccccc3O)=N2)cc1` (stereo not shown) [Example 105, 3-(2-Hydroxyphenyl)-N-(4-methoxyphenyl)-4-methyl-4,5-dihydro-1H-pyrazole-1-carboximidamide] are 46%, 95% and 106%.
Turning to `COc1c(Cl)cccc1C1=NN(C(=N)NCC(F)(F)C(F)(F)C(F)(F)F)CC1C` (stereo not shown) [Example 106, 3-(3-Chloro-2-methoxyphenyl)-N-(2,2,3,3,4,4,4-heptafluorobutyl)-4-methyl-4,5-dihydro-1H-pyrazole-1-carboximidamide], in assay [3], the inhibition at 0.001 µM worked out at 16%, the inhibition at 0.01 µM was determined as 57% and the inhibition at 0.1 µM was 93%.
Take `CC1CN(C(=N)NCC(F)(F)C(F)(F)C(F)(F)F)N=C1c1cccc(Cl)c1O` (stereo not shown) [Example 107, 3-(3-Chloro-2-hydroxyphenyl)-N-(2,2,3,3,4,4,4-heptafluorobutyl)-4-methyl-4,5-dihydro-1H-pyrazole-1-carboximidamide]: in assay [3], the inhibition at 0.001 µM came to 51%, the inhibition at 0.01 µM stood at 91% and the inhibition at 0.1 µM amounted to 100%.
The corresponding values for `COc1c(Cl)cccc1C1=NN(C(=N)Nc2ccc(F)cc2)CC1C` (stereo not shown) [Example 108, 3-(3-Chloro-2-methoxyphenyl)-N-(4-fluorophenyl)-4-methyl-4,5-dihydro-1H-pyrazole-1-carboximidamide] are 29%, 83% and 101%.
Regarding `CC1CN(C(=N)Nc2ccc(F)cc2)N=C1c1cccc(Cl)c1O` (stereo not shown) [Example 109, 3-(3-Chloro-2-hydroxyphenyl)-N-(4-fluorophenyl)-4-methyl-4,5-dihydro-1H-pyrazole-1-carboximidamide], in assay [3], the inhibition at 0.001 µM turned out to be 72%, the inhibition at 0.01 µM stood at 99% and the inhibition at 0.1 µM was 104%.
The matching figures for `COc1c(Cl)cccc1C1=NN(C(=N)Nc2ccc(Cl)cc2)CC1C` (stereo not shown) [Example 110, 3-(3-Chloro-2-methoxyphenyl)-N-(4-chlorophenyl)-4-methyl-4,5-dihydro-1H-pyrazole-1-carboximidamide]: 41%, 83% and 97%.
The matching figures for `CC1CN(C(=N)Nc2ccc(Cl)cc2)N=C1c1cccc(Cl)c1O` (stereo not shown) [Example 111, 3-(3-Chloro-2-hydroxyphenyl)-N-(4-chlorophenyl)-4-methyl-4,5-dihydro-1H-pyrazole-1-carboximidamide]: 80%, 99% and 101%.
As to `COc1c(Cl)cccc1C1=NN(C(=N)Nc2ccc(C(F)(F)F)cc2)CC1C` (stereo not shown) [Example 112, 3-(3-Chloro-2-methoxyphenyl)-4-methyl-N-(4-(trifluoromethyl)phenyl)-4,5-dihydro-1H-pyrazole-1-carboximidamide], in assay [3], the inhibition at 0.001 µM is 1%, the inhibition at 0.01 µM worked out at 77% and the inhibition at 0.1 µM worked out at 97%.
As to `CC1CN(C(=N)Nc2ccc(C(F)(F)F)cc2)N=C1c1cccc(Cl)c1O` (stereo not shown) [Example 113, 3-(3-Chloro-2-hydroxyphenyl)-4-methyl-N-(4-(trifluoromethyl)phenyl)-4,5-dihydro-1H-pyrazole-1-carboximidamide], in assay [3], the inhibition at 0.001 µM stood at 59%, the inhibition at 0.01 µM came out at 95% and the inhibition at 0.1 µM turned out to be 99%.
As for `CCOC(=O)NC(=N)N1CC(C)C(c2cccc(Cl)c2OC(=O)OCC)=N1` (stereo not shown) [Example 118, Ethyl ((3-(3-chloro-2-((ethoxycarbonyl)oxy)phenyl)-4-methyl-4,5-dihydro-1H-pyrazol-1-yl)(imino)methyl)carbamate], in assay [3], the inhibition at 0.01 µM came out at 0% and the inhibition at 0.1 µM was found to be 54%. Moreover, the inhibition at 1 µM in assay [3] (1 uM compound) came to 91%.
In the case of `CCOC(=O)NC(=N)N1CC(C)C(c2cccc(Cl)c2O)=N1` (stereo not shown) [Example 119, Ethyl ((3-(3-chloro-2-hydroxyphenyl)-4-methyl-4,5-dihydro-1H-pyrazol-1-yl)(imino)methyl)carbamate], in assay [3], the inhibition at 0.01 µM amounted to 50% and the inhibition at 0.1 µM is 89%. Moreover, the inhibition at 1 µM in assay [3] (1 uM compound) is 99%.
Turning to “(R)-3-(2-Hydroxyphenyl)-4-methyl-4,5-dihydro-1H-pyrazole-1-carboximidamide [Example 36]”, the “5-HT2B receptor binding (% displacement)” value in assay [3] (1 uM compound) was determined as 90%; in assay [3] (10 uM compound), 99%.
